Results published in patent US8101606B2, “Neurofibromin pathway modulators” (Washington University, priority 2007, dated 2012).
“Also recorded” adds a separate entry of the source.

Key:
S6 activation = S6 activation in Tsc1-deficient astrocytes; type: cell-based
Text: FIG. 8 depicts images showing that Rheb pharmacologic inhibition blocks mTOR pathway activation in Tsc1-deficient, but not neurofibromin 1 deficient, astrocytes.
In each case, the abnormal Tsc1^−/− and neurofibromin 1^−/− astrocyte phenotypes were reversed by mTOR inhibition (rapamycin treatment). […] These studies provide preliminary evidence for a TSC/Rheb-independent mechanism.

[1] = test system: mTOR pathway activation (S6 phosphorylation); test: S6 phosphorylation (mTOR pathway activation) in neurofibromin 1 deficient astrocytes, phospho-specific antibodies; type: cell-based, mouse; conditions: Nf1-/- astrocytes; concentration not given
Text: Evidence exists for direct activation of mTOR signaling by Akt as well as indirect activation of mTOR by Akt through the tuberous sclerosis complex (TSC)/Rheb pathway. Studies have shown that the mTOR activation resulting from neurofibromin loss in astrocytes can be reversed by restoring NF1-GAP activity (NF1 GRD), blocking K-RAS activity (K-RASN17), or inhibiting PI-3K activation of Akt.

CSCC[C@H](NC(=O)c1ccc(NC[C@@H](N)CS)cc1-c1ccccc1)C(=O)O [FTI-276]
S6 activation (S6 activation): effectively blocks S6 activation; also recorded: reduced S6 activation
S6 activation / phosphorylation (mTOR pathway activation) [1]: did not reduce S6 hyperactivation; also recorded: no effect on S6 activity
